Values belong to the molecule of their own block, whether it stands above or below them.
How the values were obtained:
[1] = test system: P. falciparum female gametocytes; assay: P. falciparum Dual Gamete Formation Assay (PfDGFA), female readout (Pfs25-positive female gametes); format: cell-based, Plasmodium falciparum NF54; settings: for Selectivity ratio F: HepG2 Tox50 versus female IC50; for Average inhibition female (%) / % inhibition female (individual replicates) R1 / % inhibition female (individual replicates) R3 / % inhibition female (individual replicates) R4: 24h preincubation with gametocytes; for Average inhibition female (%): average of replicates; for % inhibition female (individual replicates) R1: replicate R1; for % inhibition female (individual replicates) R3: replicate R3; for % inhibition female (individual replicates) R4: replicate R4; for IC50: PfDGFA, 24 h incubation with gametocytes before induction, female gamete readout, read-out: Female IC50; for HitlevelF: number of replicates with >50% inhibition in the female readout
Outline: (§1)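 First, day-14 P. falciparum NF54 gametocytes receive compound for 24 h at 37°C in 1% O2/3% CO2. Next, ookinete medium with Cy3 anti-Pfs25 triggers gametogenesis at 28°C and male exflagellation is imaged. Finally, after 24 h in the dark, Cy3-labelled females are imaged.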

[2] = test system: P. falciparum male gametocytes; assay: P. falciparum Dual Gamete Formation Assay (PfDGFA), male readout (exflagellation); format: cell-based, Plasmodium falciparum NF54; settings: for Selectivity Ratio M: HepG2 Tox50 versus male IC50; for Average inhibition male (%) / % inhibition male (individual replicates) R1 / % inhibition male (individual replicates) R3 / % inhibition male (individual replicates) R4: 24h preincubation with gametocytes; for Average inhibition male (%): average of replicates; for % inhibition male (individual replicates) R1: replicate R1; for % inhibition male (individual replicates) R3: replicate R3; for % inhibition male (individual replicates) R4: replicate R4; for IC50: PfDGFA, 24 h incubation with gametocytes before induction, exflagellation readout, read-out: Male IC50; for HitlevelM: number of replicates with >50% inhibition in the male readout
Outline: as §1

[3] = test system: HepG2 cells; assay: HepG2 cytotoxicity counter-screen; settings: cytotoxic activity against HepG2 cells

- IC50 [1]: 1.03 µM
- IC50 [2]: 0.47 µM
Compound: Nc1nc(N)c2c(ccc3c2ccn3Cc2ccc(-c3ccccc3)cc2)n1 [TCMDC-137813]
- Selectivity ratio F [1]: 0.44
- Average inhibition female (%) ([1]; PfDGFA at 2µM): 90.5%
- % inhibition female (individual replicates) R1 ([1]; PfDGFA at 2µM): 93.6%
- % inhibition female (individual replicates) R3 ([1]; PfDGFA at 2µM): 92.9%
- % inhibition female (individual replicates) R4 ([1]; PfDGFA at 2µM): 90.8%
- HitlevelF ([1]; 2µM): 4
- Selectivity Ratio M [2]: 0.97
- Average inhibition male (%) ([2]; PfDGFA at 2µM): 70.1%
- % inhibition male (individual replicates) R1 ([2]; PfDGFA at 2µM): 91.2%
- % inhibition male (individual replicates) R3 ([2]; PfDGFA at 2µM): 64.2%
- % inhibition male (individual replicates) R4 ([2]; PfDGFA at 2µM): 76.3%
- HitlevelM ([2]; 2µM): 3
- Tox50 [3]: 0.46 µM

- IC50 [1]: 2.88 µM
- IC50 [2]: 1.85 µM
Compound: C#CCCOc1ccc2ccccc2c1CNCCCCCCNCc1c(OCCC#C)ccc2ccccc12 [TCMDC-137832]
- Selectivity ratio F [1]: 1.37
- Average inhibition female (%) ([1]; PfDGFA at 2µM): 22.9%
- % inhibition female (individual replicates) R1 ([1]; PfDGFA at 2µM): 24.2%
- % inhibition female (individual replicates) R3 ([1]; PfDGFA at 2µM): 11.7%
- % inhibition female (individual replicates) R4 ([1]; PfDGFA at 2µM): 20.0%
- HitlevelF ([1]; 2µM): 0
- Selectivity Ratio M [2]: 2.13
- Average inhibition male (%) ([2]; PfDGFA at 2µM): 78.9%
- % inhibition male (individual replicates) R1 ([2]; PfDGFA at 2µM): 82.1%
- % inhibition male (individual replicates) R3 ([2]; PfDGFA at 2µM): 58.7%
- % inhibition male (individual replicates) R4 ([2]; PfDGFA at 2µM): 86.2%
- HitlevelM ([2]; 2µM): 4
- Tox50 [3]: 3.94 µM

Compound: CS(=O)(=O)O.FC(F)(F)COc1c(CNCCCCCCNCc2ccc3ccccc3c2OCC(F)(F)F)ccc2ccccc12 [TCMDC-137833]
- Selectivity ratio F [1]: 0.51
- Average inhibition female (%) ([1]; PfDGFA at 2µM): 29.5%
- % inhibition female (individual replicates) R1 ([1]; PfDGFA at 2µM): 27.4%
- % inhibition female (individual replicates) R3 ([1]; PfDGFA at 2µM): 10.4%
- % inhibition female (individual replicates) R4 ([1]; PfDGFA at 2µM): 40.2%
- IC50 [1]: 6.57 µM
- HitlevelF ([1]; 2µM): 0
- Selectivity Ratio M [2]: 1.9
- Average inhibition male (%) ([2]; PfDGFA at 2µM): 69.2%
- % inhibition male (individual replicates) R1 ([2]; PfDGFA at 2µM): 70.5%
- % inhibition male (individual replicates) R3 ([2]; PfDGFA at 2µM): 47.4%
- % inhibition male (individual replicates) R4 ([2]; PfDGFA at 2µM): 77.6%
- IC50 [2]: 1.75 µM
- HitlevelM ([2]; 2µM): 3
- Tox50 [3]: 3.32 µM

Compound: CS(=O)(=O)O.c1ccc2c(CNCCCCCCNCc3c(OCC4CC4)ccc4ccccc34)c(OCC3CC3)ccc2c1 [TCMDC-137839]
- Average inhibition female (%) ([1]; 2µM): 78.7%
- % inhibition female (individual replicates) R1 ([1]; 2µM): 59.7%
- % inhibition female (individual replicates) R3 ([1]; 2µM): 91.2%
- % inhibition female (individual replicates) R4 ([1]; 2µM): 88.3%
- Selectivity ratio F [1]: 1.36
- IC50 [1]: 2.36 µM
- Average inhibition male (%) ([2]; 2µM): 95.2%
- % inhibition male (individual replicates) R1 ([2]; 2µM): 96.4%
- % inhibition male (individual replicates) R3 ([2]; 2µM): 98.9%
- % inhibition male (individual replicates) R4 ([2]; 2µM): 103.0%
- Selectivity Ratio M [2]: 2.29
- IC50 [2]: 1.4 µM
- Tox50 [3]: 3.2 µM

- IC50 [1]: 2.32 µM
- IC50 [2]: 1.02 µM
Compound: Nc1nc(N)c2c(ccc3[nH]c(-c4ccccc4Cl)nc32)n1 [TCMDC-137840]
- Average inhibition female (%) ([1]; 2µM): 54.2%
- % inhibition female (individual replicates) R1 ([1]; 2µM): 66.8%
- % inhibition female (individual replicates) R3 ([1]; 2µM): 50.3%
- % inhibition female (individual replicates) R4 ([1]; 2µM): 52.5%
- Selectivity ratio F [1]: 0.88
- Average inhibition male (%) ([2]; 2µM): 99.1%
- % inhibition male (individual replicates) R1 ([2]; 2µM): 101.1%
- % inhibition male (individual replicates) R3 ([2]; 2µM): 94.6%
- % inhibition male (individual replicates) R4 ([2]; 2µM): 101.3%
- Selectivity Ratio M [2]: 2.01
- Tox50 [3]: 2.04 µM

Compound: COc1cc2ccccc2c(OC)c1CNCCCCCCNCc1c(OC)cc2ccccc2c1OC.CS(=O)(=O)O [TCMDC-137843]
- Selectivity ratio F [1]: 0.88
- Average inhibition female (%) ([1]; PfDGFA at 2µM): 38.4%
- % inhibition female (individual replicates) R1 ([1]; PfDGFA at 2µM): 31.9%
- % inhibition female (individual replicates) R3 ([1]; PfDGFA at 2µM): 18.8%
- % inhibition female (individual replicates) R4 ([1]; PfDGFA at 2µM): 37.8%
- IC50 [1]: 4.09 µM
- HitlevelF ([1]; 2µM): 1
- Selectivity Ratio M [2]: 2.16
- Average inhibition male (%) ([2]; PfDGFA at 2µM): 82.6%
- % inhibition male (individual replicates) R1 ([2]; PfDGFA at 2µM): 82.1%
- % inhibition male (individual replicates) R3 ([2]; PfDGFA at 2µM): 58.2%
- % inhibition male (individual replicates) R4 ([2]; PfDGFA at 2µM): 98.9%
- IC50 [2]: 1.66 µM
- HitlevelM ([2]; 2µM): 4
- Tox50 [3]: 3.59 µM
